What was measured:
Assay in all cases: relative viability (nuclei count vs DMSO), 5 days (fraction); higher = more cells survive
[1] = tested on: NCI-H2405
In short: (§1)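 Lung cancer cell lines were seeded in 1536-well plates and dosed by pin tool the next day, with either a single drug or a fixed anchor-drug dose combined with five library-drug doses (not always all listed) spaced in √10 steps. Five days later, one step fixed the cells and stained their nuclei (final 0.05% Triton X-100, 1% formaldehyde, 1 ug/ml Hoechst), and nuclei were counted on 4× images. Relative viability is the nuclei count in treated wells divided by the count in vehicle wells, and each value is the median of duplicate plates.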

[2] = tested on: EMC-BAC-2
In short: as §1

[3] = tested on: NCI-H2085
In short: as §1

[4] = tested on: NCI-H838
In short: as §1

[5] = tested on: NCI-H1793
In short: as §1

[6] = tested on: NCI-H1395
In short: as §1

[7] = tested on: LU99A
In short: as §1

[8] = tested on: EPLC-272H
In short: as §1

[9] = tested on: NCI-H1651
In short: as §1

[10] = tested on: NCI-H1944
In short: as §1

[11] = tested on: NCI-H520
In short: as §1

[12] = tested on: HCC-827
In short: as §1

[13] = tested on: NCI-H2087
In short: as §1

[14] = tested on: NCI-H1563
In short: as §1

[15] = tested on: SK-MES-1
In short: as §1

[16] = tested on: NCI-H650
In short: as §1

[17] = tested on: NCI-H2023
In short: as §1

[18] = tested on: ChaGo-K-1
In short: as §1

[19] = tested on: LCLC-103H
In short: as §1

[20] = tested on: COR-L23
In short: as §1

[21] = tested on: H3255
In short: as §1

`CCN(CC)CCCCNc1ncc2cc(-c3cc(OC)cc(OC)c3)c(NC(=O)NC(C)(C)C)nc2n1` + Cc1nc(Nc2ncc(C(=O)Nc3c(C)cccc3Cl)s2)cc(N2CCN(CCO)CC2)n1 [Dasatinib] (partner 0.075 µM) was tested. Which relative viability ([1]; first compound 0.01 µM) did it give?
The relative viability was 0.193.

What about the relative viability ([1]; first compound 0.03162 µM) of the same molecule?
The relative viability was 0.202.

What about the relative viability ([1]; first compound 0.1 µM) of the same molecule?
The relative viability was 0.466.

What about the relative viability ([1]; first compound 0.3162 µM) of the same molecule?
Its relative viability is 0.205.

And the relative viability ([1]; first compound 1 µM)?
Its relative viability is 0.186.

What about the relative viability ([2]; first compound 0.01 µM) of the same molecule?
The relative viability was 0.189.

What about the relative viability ([2]; first compound 0.03162 µM) of the same molecule?
Its relative viability is 0.359.

And the relative viability ([2]; first compound 0.1 µM)?
The relative viability was 0.304.

And the relative viability ([2]; first compound 0.3162 µM)?
Its relative viability is 0.348.

And the relative viability ([2]; first compound 1 µM)?
Its relative viability is 0.3.

And the relative viability ([3]; first compound 0.01 µM)?
Its relative viability is 0.251.

And the relative viability ([3]; first compound 0.03162 µM)?
The relative viability was 0.181.

And the relative viability ([3]; first compound 0.1 µM)?
The relative viability was 0.278.

And the relative viability ([3]; first compound 0.3162 µM)?
Its relative viability is 0.231.

What about the relative viability ([3]; first compound 1 µM) of the same molecule?
The relative viability was 0.216.

What about the relative viability ([4]; first compound 0.01 µM) of the same molecule?
Its relative viability is 0.259.

What about the relative viability ([4]; first compound 0.03162 µM) of the same molecule?
The relative viability was 0.305.

What about the relative viability ([4]; first compound 0.1 µM) of the same molecule?
The relative viability was 0.307.

And the relative viability ([4]; first compound 0.3162 µM)?
Its relative viability is 0.305.

And the relative viability ([4]; first compound 1 µM)?
Its relative viability is 0.246.

What about the relative viability ([5]; first compound 0.01 µM) of the same molecule?
Its relative viability is 0.369.

And the relative viability ([5]; first compound 0.03162 µM)?
Its relative viability is 0.312.

What about the relative viability ([5]; first compound 0.1 µM) of the same molecule?
Its relative viability is 0.372.

What about the relative viability ([5]; first compound 0.3162 µM) of the same molecule?
The relative viability was 0.283.

And the relative viability ([5]; first compound 1 µM)?
Its relative viability is 0.271.

And the relative viability ([6]; first compound 0.01 µM)?
Its relative viability is 0.421.

What about the relative viability ([6]; first compound 0.03162 µM) of the same molecule?
The relative viability was 0.422.

And the relative viability ([6]; first compound 0.1 µM)?
The relative viability was 0.753.

And the relative viability ([6]; first compound 0.3162 µM)?
Its relative viability is 0.386.

And the relative viability ([6]; first compound 1 µM)?
Its relative viability is 0.411.

And the relative viability ([7]; first compound 0.01 µM)?
Its relative viability is 0.508.

What about the relative viability ([7]; first compound 0.03162 µM) of the same molecule?
Its relative viability is 0.611.

What about the relative viability ([7]; first compound 0.1 µM) of the same molecule?
Its relative viability is 0.712.

What about the relative viability ([7]; first compound 0.3162 µM) of the same molecule?
The relative viability was 0.499.

What about the relative viability ([7]; first compound 1 µM) of the same molecule?
Its relative viability is 0.445.

What about the relative viability ([8]; first compound 0.01 µM) of the same molecule?
The relative viability was 0.379.

What about the relative viability ([8]; first compound 0.03162 µM) of the same molecule?
Its relative viability is 1.08.

What about the relative viability ([8]; first compound 0.1 µM) of the same molecule?
The relative viability was 0.322.

What about the relative viability ([8]; first compound 0.3162 µM) of the same molecule?
Its relative viability is 0.294.

What about the relative viability ([8]; first compound 1 µM) of the same molecule?
The relative viability was 0.241.

What about the relative viability ([9]; first compound 0.01 µM) of the same molecule?
The relative viability was 0.465.

What about the relative viability ([9]; first compound 0.03162 µM) of the same molecule?
Its relative viability is 0.448.

And the relative viability ([9]; first compound 0.1 µM)?
The relative viability was 0.486.

And the relative viability ([9]; first compound 0.3162 µM)?
The relative viability was 0.47.

What about the relative viability ([9]; first compound 1 µM) of the same molecule?
Its relative viability is 0.288.

What about the relative viability ([10]; first compound 0.01 µM) of the same molecule?
The relative viability was 0.197.

What about the relative viability ([10]; first compound 0.03162 µM) of the same molecule?
The relative viability was 0.212.

And the relative viability ([10]; first compound 0.1 µM)?
Its relative viability is 0.22.

And the relative viability ([10]; first compound 0.3162 µM)?
Its relative viability is 0.236.

What about the relative viability ([10]; first compound 1 µM) of the same molecule?
Its relative viability is 0.196.

What about the relative viability ([11]; first compound 0.01 µM) of the same molecule?
Its relative viability is 0.182.

What about the relative viability ([11]; first compound 0.03162 µM) of the same molecule?
Its relative viability is 0.2.

And the relative viability ([11]; first compound 0.1 µM)?
The relative viability was 0.216.

And the relative viability ([11]; first compound 0.3162 µM)?
Its relative viability is 0.159.

What about the relative viability ([11]; first compound 1 µM) of the same molecule?
The relative viability was 0.162.

What about the relative viability ([12]; first compound 0.01 µM) of the same molecule?
The relative viability was 0.338.

And the relative viability ([12]; first compound 0.03162 µM)?
Its relative viability is 0.245.

What about the relative viability ([12]; first compound 0.1 µM) of the same molecule?
Its relative viability is 0.352.

And the relative viability ([12]; first compound 0.3162 µM)?
Its relative viability is 0.335.

What about the relative viability ([12]; first compound 1 µM) of the same molecule?
The relative viability was 0.299.

What about the relative viability ([13]; first compound 0.01 µM) of the same molecule?
The relative viability was 0.993.

What about the relative viability ([13]; first compound 0.03162 µM) of the same molecule?
Its relative viability is 0.797.

What about the relative viability ([13]; first compound 0.1 µM) of the same molecule?
The relative viability was 0.964.

And the relative viability ([13]; first compound 0.3162 µM)?
Its relative viability is 0.961.

And the relative viability ([13]; first compound 1 µM)?
Its relative viability is 0.888.

And the relative viability ([14]; first compound 0.01 µM)?
Its relative viability is 0.477.

What about the relative viability ([14]; first compound 0.03162 µM) of the same molecule?
Its relative viability is 0.412.

What about the relative viability ([14]; first compound 0.1 µM) of the same molecule?
The relative viability was 0.474.

What about the relative viability ([14]; first compound 0.3162 µM) of the same molecule?
The relative viability was 0.478.

And the relative viability ([14]; first compound 1 µM)?
The relative viability was 0.503.

And the relative viability ([15]; first compound 0.01 µM)?
Its relative viability is 0.36.

And the relative viability ([15]; first compound 0.03162 µM)?
Its relative viability is 0.375.

What about the relative viability ([15]; first compound 0.1 µM) of the same molecule?
Its relative viability is 0.407.

What about the relative viability ([15]; first compound 0.3162 µM) of the same molecule?
The relative viability was 0.281.

What about the relative viability ([15]; first compound 1 µM) of the same molecule?
The relative viability was 0.27.

What about the relative viability ([16]; first compound 0.01 µM) of the same molecule?
Its relative viability is 0.368.

And the relative viability ([16]; first compound 0.03162 µM)?
Its relative viability is 0.454.

And the relative viability ([16]; first compound 0.1 µM)?
The relative viability was 0.468.

What about the relative viability ([16]; first compound 0.3162 µM) of the same molecule?
Its relative viability is 0.48.

And the relative viability ([16]; first compound 1 µM)?
Its relative viability is 0.427.

What about the relative viability ([17]; first compound 0.01 µM) of the same molecule?
Its relative viability is 0.548.

What about the relative viability ([17]; first compound 0.03162 µM) of the same molecule?
The relative viability was 0.675.

What about the relative viability ([17]; first compound 0.1 µM) of the same molecule?
Its relative viability is 0.657.

What about the relative viability ([17]; first compound 0.3162 µM) of the same molecule?
The relative viability was 0.571.

And the relative viability ([17]; first compound 1 µM)?
The relative viability was 0.493.

And the relative viability ([18]; first compound 0.01 µM)?
Its relative viability is 0.584.

What about the relative viability ([18]; first compound 0.03162 µM) of the same molecule?
Its relative viability is 0.602.

What about the relative viability ([18]; first compound 0.1 µM) of the same molecule?
Its relative viability is 0.655.

And the relative viability ([18]; first compound 0.3162 µM)?
Its relative viability is 0.643.

And the relative viability ([18]; first compound 1 µM)?
Its relative viability is 0.514.

What about the relative viability ([19]; first compound 0.01 µM) of the same molecule?
Its relative viability is 0.424.

What about the relative viability ([19]; first compound 0.03162 µM) of the same molecule?
The relative viability was 0.623.

What about the relative viability ([19]; first compound 0.1 µM) of the same molecule?
Its relative viability is 0.596.

And the relative viability ([19]; first compound 0.3162 µM)?
Its relative viability is 0.554.

And the relative viability ([19]; first compound 1 µM)?
The relative viability was 0.331.

What about the relative viability ([20]; first compound 0.01 µM) of the same molecule?
The relative viability was 0.527.

What about the relative viability ([20]; first compound 0.03162 µM) of the same molecule?
The relative viability was 0.549.

What about the relative viability ([20]; first compound 0.1 µM) of the same molecule?
Its relative viability is 0.546.

And the relative viability ([20]; first compound 0.3162 µM)?
The relative viability was 0.566.

And the relative viability ([20]; first compound 1 µM)?
The relative viability was 0.608.

What about the relative viability ([21]; first compound 0.01 µM) of the same molecule?
The relative viability was 0.342.

What about the relative viability ([21]; first compound 0.03162 µM) of the same molecule?
Its relative viability is 0.305.

And the relative viability ([21]; first compound 0.1 µM)?
The relative viability was 0.478.

And the relative viability ([21]; first compound 0.3162 µM)?
Its relative viability is 0.594.

And the relative viability ([21]; first compound 1 µM)?
Its relative viability is 0.339.

— the supplement of paper PMC10307832
